Assay results reported in patent publication US20120214862A1, “MODULATION OF FACTOR 7 EXPRESSION” (ISIS Pharmaceuticals, Inc., priority 2009, published 2012).
In the oligonucleotide strings, read from the 5' end, every base follows the letter of its sugar. An asterisk marks phosphorothioate; unmarked linkages are phosphodiester. Other units and linkages are bracketed, terminal groups are in braces. A string of capitals states the bases alone. e = 2'-O-(2-methoxyethyl) (MOE); [5mC] = 5-methylcytosine; d = 2'-deoxy (DNA)

System: human Factor 7 mRNA
Test: Antisense inhibition of human Factor 7 mRNA in HepB3 cells, lipofectin, 50 nM, real-time RT-PCR
Type: cell-based
Conditions: for % Inhibition (human Factor 7 mRNA): 50 nM, ~24 h
Protocol: Antisense oligonucleotides targeted to a Factor 7 nucleic acid were tested for their effects on Factor 7 mRNA in vitro. Cultured HepB3 cells at a density of 4,000 cells per well were transfected using lipofectin reagent with 50 nM antisense oligonucleotide. After a treatment period of approximately 24 hours, RNA was isolated from the cells and Factor 7 mRNA levels were measured by real-time RT-PCR, as described herein. Factor 7 mRNA levels were adjusted according to total RNA content as measured by RIBOGREEN®. Results are presented as percent inhibition of Factor 7, relative to untreated control cells.
(§1) Antisense oligonucleotides targeted to a Factor 7 nucleic acid were designed and tested for their effects on Factor 7 mRNA in vitro. Certain antisense oligonucleotides from Table 3 were also retested for their effects on Factor 7 mRNA in vitro. Cultured HepB3 cells at a density of 4,000 cells per well were transfected using lipofectin reagent with 50 nM antisense oligonucleotide. After a treatment period of approximately 24 hours, RNA was isolated from the cells and Factor 7 mRNA levels were measured by real-time RT-PCR, as described herein. Human Factor 7 primer probe set RTS 2927 was used to measure mRNA levels. Factor 7 mRNA levels were adjusted according to total RNA content as measured by RIBOGREEN®. Results are presented as percent inhibition of Factor 7, relative to untreated control.
as §1, with “tested” for “tested for their effects on Factor 7 mRNA in vitro. Certain antisense oligonucleotides from Table 3 were also retested”
These gapmers were designed by creating gapmers shifted slightly upstream and downstream (i.e. “microwalk”) of the original gapmers from Table 7. Gapmers were also created with various motifs, e.g. 5-10-5 MOE, 3-14-3 MOE, and 2-13-5 MOE. These gapmers were tested in vitro. Cultured HepB3 cells at a density of 4,000 cells per well were transfected using lipofectin reagent with 50 nM antisense oligonucleotide. After a treatment period of approximately 24 hours, RNA was isolated from the cells and Factor 7 mRNA levels were measured by real-time RT-PCR. Factor 7 mRNA levels were adjusted according to total RNA content, as measured by RIBOGREEN®. Results are presented as percent inhibition of Factor 7, relative to untreated control cells.

[1] = HepB3 cells, gapmers (5-10-5, 3-14-3, 2-13-5 MOE) targeted to nucleobases 4868 to 4899 of SEQ ID NO: 1
[2] = Example 1, HepB3 cells, lipofectin, relative to untreated control cells
[3] = HepB3 cells, lipofectin, 50 nM antisense oligonucleotide, approximately 24 hours, primer probe set RTS 2927, relative to untreated control
[4] = HepB3 cells, gapmers targeted to nucleobases 11830 to 11869 of SEQ ID NO: 1 (Table 9)
[5] = Example 4, HepB3 cells, lipofectin, relative to untreated control
[6] = Example 6 microwalk, nucleobases 15098 to 15122 of SEQ ID NO: 1, HepB3, lipofectin

## 422141 (antisense eA*eG*eT*eT*e[5mC]*dT*dG*d[5mC]*dA*dG*dG*dA*dG*d[5mC]*dG*eG*e[5mC]*e[5mC]*eT*eA) [compound 422141]
[1]
  % Inhibition of human Factor 7 mRNA levels: 64%

## 422214 (antisense eT*eT*e[5mC]*dT*dG*d[5mC]*dA*dG*dG*dA*dG*d[5mC]*dG*dG*d[5mC]*d[5mC]*dT*eA*eA*eA) [compound 422214]
[1]
  % Inhibition of human Factor 7 mRNA levels: 60%

## 407917 (antisense eA*e[5mC]*eA*e[5mC]*e[5mC]*d[5mC]*d[5mC]*dA*dA*dA*dG*dT*dG*dG*d[5mC]*e[5mC]*e[5mC]*eA*e[5mC]*eG) [compound 407917]
[2]
  % Inhibition (human Factor 7 mRNA): 70%

## 422132 (antisense eG*e[5mC]*eA*eG*e[5mC]*d[5mC]*dT*dG*dA*dG*dG*d[5mC]*d[5mC]*dA*dG*e[5mC]*eA*eG*eA*eT) [compound 422132]
HepB3 cells, gapmers targeted to nucleobases 14707 to 14732 of SEQ ID NO: 1 (Table 11)
  % Inhibition of human Factor 7 mRNA levels: 54%

## 416453 (antisense eG*eA*eT*eT*eT*dT*dG*dT*d[5mC]*dG*dA*dA*dA*d[5mC]*dA*eG*eT*eG*eG*eG) [compound 416453]
[3]
  % Inhibition of human Factor 7 mRNA levels: 45%

## 416435 (antisense e[5mC]*e[5mC]*e[5mC]*eA*eT*d[5mC]*dA*d[5mC]*dT*dG*dT*dA*dA*dG*dA*eA*eA*eT*e[5mC]*e[5mC]) [compound 416435]
[3]
  % Inhibition of human Factor 7 mRNA levels: 3%

## 422245 (antisense eT*eG*dA*dG*dG*dA*dG*dA*d[5mC]*dA*dA*dT*dG*dG*dT*e[5mC]*eA*eG*eG*eG) [compound 422245]
[4]
  % Inhibition of human Factor 7 mRNA levels: 24%

## 416429 (antisense eA*e[5mC]*eG*e[5mC]*e[5mC]*dG*dT*dG*dG*dG*d[5mC]*dT*dT*d[5mC]*d[5mC]*eT*e[5mC]*e[5mC]*eT*eG) [compound 416429]
[3]
  % Inhibition of human Factor 7 mRNA levels: 47%

## 422127 (antisense eT*eA*e[5mC]*eT*eG*dA*dG*d[5mC]*dG*d[5mC]*dG*dG*dA*dA*dG*eA*eA*eG*eG*eG) [compound 422127]
[5]
  % Inhibition (human Factor 7 mRNA): 17%

## 416459 (antisense eT*eG*eG*eT*e[5mC]*dA*dG*dT*dG*dA*dG*dG*dA*d[5mC]*d[5mC]*eA*e[5mC]*eG*eG*eG) [compound 416459]
[3]
  % Inhibition of human Factor 7 mRNA levels: 23%

## 407911 (antisense e[5mC]*e[5mC]*e[5mC]*e[5mC]*eT*dT*dG*d[5mC]*dA*dG*dG*dA*dG*dT*d[5mC]*e[5mC]*eT*eT*eG*e[5mC]) [compound 407911]
[2]
  % Inhibition (human Factor 7 mRNA): 74%

## 407960 (antisense eG*eT*eG*e[5mC]*e[5mC]*d[5mC]*dA*dG*dG*dA*d[5mC]*dG*dG*d[5mC]*d[5mC]*e[5mC]*eT*eG*e[5mC]*eA) [compound 407960]
[2]
  % Inhibition (human Factor 7 mRNA): 53%

## 403093 (antisense eG*eA*eG*eA*e[5mC]*d[5mC]*d[5mC]*dT*dG*dG*dT*dG*dT*dA*d[5mC]*eA*e[5mC]*e[5mC]*e[5mC]*e[5mC]) [compound 403093]
[2]
  % Inhibition (human Factor 7 mRNA): 75%

## 416500 (antisense e[5mC]*eT*eG*eA*eA*d[5mC]*dA*d[5mC]*d[5mC]*d[5mC]*d[5mC]*dA*dG*d[5mC]*dT*eG*eA*eG*eA*eG) [compound 416500]
[3]
  % Inhibition of human Factor 7 mRNA levels: 1%

## 422224 (antisense eG*eG*eA*dG*d[5mC]*d[5mC]*d[5mC]*dG*dA*dG*dT*dT*d[5mC]*dT*dG*d[5mC]*dA*eG*eG*eA) [compound 422224]
[1]
  % Inhibition of human Factor 7 mRNA levels: 62%

## 416529 (antisense eG*eG*eG*e[5mC]*eT*dG*dA*dG*dA*d[5mC]*dT*dG*dA*dG*dG*eT*e[5mC]*eA*eG*e[5mC]) [compound 416529]
[3]
  % Inhibition of human Factor 7 mRNA levels: 18%

## 416563 (antisense eG*e[5mC]*e[5mC]*eT*eG*d[5mC]*dA*dT*dT*dT*d[5mC]*d[5mC]*d[5mC]*dA*dT*eT*eG*eG*e[5mC]*eA) [compound 416563]
[3]
  % Inhibition of human Factor 7 mRNA levels: 0%

## 416564 (antisense eG*e[5mC]*e[5mC]*eA*e[5mC]*dT*d[5mC]*dA*d[5mC]*dA*dG*dA*dA*dA*dG*e[5mC]*eT*eG*eG*eA) [compound 416564]
[3]
  % Inhibition of human Factor 7 mRNA levels: 0%

## 416544 (antisense eA*eT*e[5mC]*e[5mC]*e[5mC]*dA*dT*dT*dT*dT*d[5mC]*d[5mC]*d[5mC]*dA*dG*eG*eA*eG*e[5mC]*e[5mC]) [compound 416544]
[3]
  % Inhibition of human Factor 7 mRNA levels: 58%

## 407665 (antisense eG*eT*eT*eA*e[5mC]*dG*dA*dA*dG*dA*d[5mC]*dT*dG*dG*dG*eA*eA*eA*eT*eG) [compound 407665]
[2]
  % Inhibition (human Factor 7 mRNA): 29%

## 422286 (antisense eA*eG*d[5mC]*dA*d[5mC]*dA*d[5mC]*dA*dT*dG*dG*dA*dG*dT*d[5mC]*eA*eG*e[5mC]*eA*eT) [compound 422286]
[6]
  % Inhibition (human Factor 7 mRNA): 53%

## 407962 (antisense eT*eT*eG*eG*eA*dA*dG*d[5mC]*dA*dG*d[5mC]*d[5mC]*d[5mC]*dA*d[5mC]*eG*eG*e[5mC]*eT*eG) [compound 407962]
[2]
  % Inhibition (human Factor 7 mRNA): 41%

## 422170 (antisense eG*e[5mC]*eT*dG*dA*dG*dG*dA*dG*dA*d[5mC]*dA*dA*dT*dG*dG*dT*e[5mC]*eA*eG) [compound 422170]
[4]
  % Inhibition of human Factor 7 mRNA levels: 28%

## 407913 (antisense eG*eA*eT*eG*e[5mC]*d[5mC]*d[5mC]*dG*dT*d[5mC]*dA*dG*dG*dT*dA*e[5mC]*e[5mC]*eA*e[5mC]*eG) [compound 407913]
[2]
  % Inhibition (human Factor 7 mRNA): 74%

## 422291 (antisense eT*eT*d[5mC]*dT*dG*d[5mC]*dA*dG*dG*dA*dG*d[5mC]*dG*dG*d[5mC]*e[5mC]*eT*eA*eA*eA) [compound 422291]
[1]
  % Inhibition of human Factor 7 mRNA levels: 53%

## 416462 (antisense eG*eG*e[5mC]*eA*eG*dT*d[5mC]*d[5mC]*dT*dG*dG*dG*dT*d[5mC]*dA*eT*e[5mC]*eA*eG*e[5mC]) [compound 416462]
[3]
  % Inhibition of human Factor 7 mRNA levels: 60%

## 416448 (antisense eT*eT*eT*eT*eT*d[5mC]*d[5mC]*dA*d[5mC]*dA*dT*dG*dG*dA*dT*eA*eT*eT*e[5mC]*eA) [compound 416448]
[3]
  % Inhibition of human Factor 7 mRNA levels: 34%

## 422287 (antisense e[5mC]*eA*dG*d[5mC]*dA*d[5mC]*dA*d[5mC]*dA*dT*dG*dG*dA*dG*dT*e[5mC]*eA*eG*e[5mC]*eA) [compound 422287]
[6]
  % Inhibition (human Factor 7 mRNA): 41%

## 416487 (antisense eG*e[5mC]*eA*eG*eG*dT*dG*d[5mC]*dT*d[5mC]*d[5mC]*d[5mC]*dA*dG*dG*eG*eT*e[5mC]*eT*e[5mC]) [compound 416487]
[3]
  % Inhibition of human Factor 7 mRNA levels: 39%

## 407604 (antisense e[5mC]*eA*e[5mC]*eA*e[5mC]*dT*dG*dG*dT*d[5mC]*d[5mC]*d[5mC]*d[5mC]*dA*dT*e[5mC]*eA*e[5mC]*eT*eG) [compound 407604]
[2]
  % Inhibition (human Factor 7 mRNA): 34%

## 407638 (antisense eG*e[5mC]*e[5mC]*eA*e[5mC]*dT*d[5mC]*dG*dA*dT*dG*dT*dA*d[5mC]*dT*eG*eG*eG*eA*eG) [compound 407638]
[2]
  % Inhibition (human Factor 7 mRNA): 0%

## 422269 (antisense eG*eA*dG*d[5mC]*dG*d[5mC]*dG*dG*dA*dA*dG*dA*dA*dG*dG*eG*eA*e[5mC]*eG*eG) [compound 422269]
[5]
  % Inhibition (human Factor 7 mRNA): 27%

## 416443 (antisense eG*eA*eG*eG*e[5mC]*dA*dG*dA*dA*dG*d[5mC]*dA*dG*dA*dT*eA*eT*eA*eG*eG) [compound 416443]
[3]
  % Inhibition of human Factor 7 mRNA levels: 17%

## 416548 (antisense eA*eG*eG*eT*eG*dA*dA*dT*dG*dA*dA*dA*dT*dT*d[5mC]*eT*eA*e[5mC]*e[5mC]*eT) [compound 416548]
[3]
  % Inhibition of human Factor 7 mRNA levels: 29%

## 422145 (antisense eG*e[5mC]*e[5mC]*e[5mC]*eG*dA*dG*dT*dT*d[5mC]*dT*dG*d[5mC]*dA*dG*eG*eA*eG*e[5mC]*eG) [compound 422145]
[1]
  % Inhibition of human Factor 7 mRNA levels: 57%

## 422126 (antisense eA*e[5mC]*eT*eG*eA*dG*d[5mC]*dG*d[5mC]*dG*dG*dA*dA*dG*dA*eA*eG*eG*eG*eA) [compound 422126]
[5]
  % Inhibition (human Factor 7 mRNA): 22%
